Legend:
[1] = biological target: T1, human serotonin re-uptake transporter (hSERT) (Homo sapiens, UniProt P31645); assay: Serotonin uptake inhibition in HEK-293 cells expressing hSERT; format: cell-based; conditions: for Effect on serotonin re-uptake (hSERT dependent uptake of tritiated serotonin into transfected cells): result in words; for Ki: transfected HEK-293 cells, Ki from measured IC50 by Cheng-Prusoff, average +/− s.e.m. of two experiments, read-out: Inhibition constant Ki for tritiated serotonin uptake
T1 construct: host or cells: HEK-293
T1 sequence (P31645 whole entry): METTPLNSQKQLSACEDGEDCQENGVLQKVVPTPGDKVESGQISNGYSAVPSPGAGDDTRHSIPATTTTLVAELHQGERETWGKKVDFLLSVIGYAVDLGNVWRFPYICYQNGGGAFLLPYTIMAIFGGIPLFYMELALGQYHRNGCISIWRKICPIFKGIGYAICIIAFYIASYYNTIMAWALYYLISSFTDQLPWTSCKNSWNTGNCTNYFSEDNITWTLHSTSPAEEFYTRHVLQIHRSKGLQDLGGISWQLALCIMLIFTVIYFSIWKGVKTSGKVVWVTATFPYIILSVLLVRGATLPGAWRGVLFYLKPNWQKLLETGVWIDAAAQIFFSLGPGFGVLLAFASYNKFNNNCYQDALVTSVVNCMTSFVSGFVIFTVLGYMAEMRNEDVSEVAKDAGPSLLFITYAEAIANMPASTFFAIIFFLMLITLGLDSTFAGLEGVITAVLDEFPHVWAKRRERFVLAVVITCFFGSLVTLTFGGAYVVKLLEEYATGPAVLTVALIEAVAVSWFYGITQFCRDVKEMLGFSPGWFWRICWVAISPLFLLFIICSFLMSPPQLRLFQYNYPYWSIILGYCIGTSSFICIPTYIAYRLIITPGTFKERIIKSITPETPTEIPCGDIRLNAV
Excerpt: HEK-293 cells stably expressing the human serotonin re-uptake transporter (hSERT) were obtained from R. Blakely, Vanderbilt University, USA. The cells were routinely grown in Dulbeco's Modified Eagles Medium (Bioconcept) containing 10% fetal calf serum, penicillin, streptomycin, L-glutamine and the antibiotic G418 and passaged by trypsinisation. On the day of assay, cells from 80% confluent flasks were harvested by gentle washing with warm phosphate buffered saline (PBS). Cells were then washed once by centrifugation and re-suspended in Krebs Ringers bicarbonate buffer (Sigma) supplemented with 35 μM pargyline, 2.2 mM CaCl2, 1 mM ascorbic acid and 5 mM N-2-hydroxyethylpiperazine-N′-2-ethanesulfonic acid (buffer called “Hepes”) at a concentration of 10,000 cells in 160 ul of buffer, and aliquoted into round bottomed polypropylene 96 well microtitre plates (Corning) at 10,000 cells per well. Serotonin uptake into the cells was determined by addition of radio-labeled (3H) serotonin (GE Healthcare) to a concentration of 20 nM, and incubation for 40 minutes at 37° C. with gentle shaking. At the end of this time unincorporated label was removed by filtration though Unifilter 96 GF/B plates (Perkin Elmer) using a Tomtec Mach III M cell harvester. The incorporated serotonin retained on the plates was quantified by liquid scintillation counting using Microscint-40/Topcount (Perkin Elmer).
The effect of (−)-humulone and lupulone on the serotonin uptake was determined by their inclusion in the assay at a range of concentrations between 0.03 and 100 μM for 10 minutes prior to and during the addition of (3H) serotonin. Serotonin uptake via the transporter was inhibited by (−)-humulone and lupulone, respectively, in a dose dependent manner.
The calculated inhibition constants Ki, derived from the measured IC50 using the Cheng-Prusoff equation (Y. C. Cheng, W. H. Prusoff, Biochem. Pharmacol. 1973, 22, p. 3099-3108), for inhibition of serotonin uptake by (−)-humulone and lupulone are shown in Table 1.

[2] = system: mouse; assay: Marble burying test in the mouse; format: in vivo; conditions: for Number of marbles covered by sawdust, mean ± s.e.m.: vehicle 20.1 ± 1.7
Excerpt: The method applied here follows that described by Broekkamp et al. (European Journal of Pharmacology 1986, 126, 223-229.). Mice (n=15 per treatment group) were individually placed in transparent plastic cages (33×21×18 cm) with 5 cm of sawdust on the floor and 25 marbles (diameter 1 cm) grouped in the centre of the cage. A second, up-turned, cage served as a lid. The number of marbles covered by sawdust (by at least two-thirds) was counted at the end of the 30-minute test period. Tests were performed by investigators blind to the drug treatment protocol.
Prior to testing, all test cages and marbles were “impregnated” by leaving 10 naive mice in each cage for 15 minutes.
(−)-Humulone was solubilized in physiological saline. The control substance fluoxetine (Prozac®) (Lilly), batches n^o A069667 and A058238) was dispersed in 0.2% hydroxypropylmethylcellulose (HPMC) in physiological saline.
(−)-Humulone was evaluated at 3, 10 and 30 mg/kg, administered i.p. 30 minutes before the test, and compared with a vehicle control group. Fluoxetine (32 mg/kg), administered under the same experimental conditions, was used as a reference substance.
Data were analysed by comparing treated groups with vehicle control using unpaired Student's t-tests.

[3] = system: mouse; assay: Primary observation (Irwin) test in the mouse; format: in vivo; conditions: 30 mg/kg i.p., 5 mice per group
Excerpt: The method, which detects the first toxic dose, the active dose-range and the principal effects of a test substance on behaviour and physiological function, follows that described by Irwin (Irwin S. Comprehensive observational assessment: A systematic quantitative procedure for assessing the behavioural and physiologic state of the mouse. Psychopharmacologia, 1968, 13, 222-257).
3 treated groups were compared with the same control at any one time. All animals within a treatment group were observed simultaneously.
Behavioural modifications, physiological and neurotoxicity symptoms, pupil diameter and rectal temperature were recorded according to a standardized observation grid derived from that of Irwin. The grid contains the following items: lethality*, convulsions*, tremor*, Straub*, sedation, excitation, abnormal gait* (rolling, tip-toe), jumps*, motor incoordination*, writhes*, piloerection*, stereotypies* (sniffing, chewing, head movements), head twitches*, scratching*, respiration*, aggressiveness*, fear, reactivity to touch, muscle tone, loss of righting reflex, ptosis, exopthalmos, loss of grasping, akinesia, catalepsy, loss of traction, loss of corneal reflex, analgesia, defecation, salivation, lacrimation, pupil diameter (Unit=1/45 mm) and rectal temperature.
Observations were performed 15, 30, 60, 120 and 180 minutes after administration of the test substance ((−)-humulone) and also 24 hours later. The symptoms marked (*) were observed continuously from 0 to 15 minutes after administration. 5 mice were studied per group.
(−)-Humulone was solubilized in physiological saline and injected into mice intraperitoneally.

[4] = system: mouse; assay: Light dark box test in the mouse after subchronic oral gavage; format: in vivo; conditions: for Number of crossings, mean ± sem / Time spent in light compartment, mean ± sem: 5 h and 1 h before test; for Number of crossings, mean ± sem: vehicle 6.5 ± 1.0; for Time spent in light compartment, mean ± sem: vehicle 64.4 ± 4.7; for Number of crossings, % change / Time spent in light compartment, % change: versus vehicle control
Excerpt: The method, which detects anxiolytic activity, follows that described by Crawley (Pharmacol. Biochem. Behav. 1981, 15, 695-699). Anxiolytics increase the time spent in the light compartment.
Animals were placed into the light compartment of a 2-compartment box with one half light and open (25×27×27 cm) and the other half dark and closed (20×27×27 cm). The time spent in each compartment as well as the number of times the animal crosses from one side to the other is scored during a 3-minute test. 15 mice were studied per group. The test was performed blind. […]
Clobazam (32 mg/kg orally), administered 1 hour before the test, will be used as reference substance. Mice in this group received additional administrations of vehicle at 25 and 5 hours before the test in order to maintain experimental blinding.

[5] = 50 mg/kg p.o., listed as (−)-Humulone

In the case of “6-hydroxylupulone [compound 4, reference compound]”, the “Effect on serotonin re-uptake (hSERT dependent uptake of tritiated serotonin into transfected cells)” value (from here on “Effect on serotonin re-uptake”) [1] is reported as “no effect”.
For `CC(C)=CCC1C(=O)C(C(=O)CC(C)C)=C(O)C(O)(CC=C(C)C)C1=O` (single isomer, unassigned; (-)) [(−)-humulone], the Ki [1] was 16.9 µM, the “Number of marbles covered by sawdust, % change from control” value (“Number … % change from control” below) ([2]; 3 mg/kg i.p. −30 min) was −9% and the “Number of marbles covered by sawdust, mean ± s.e.m.” value (from here on “Number … mean ± s.e.m.”) ([2]; 3 mg/kg i.p. −30 min) was 18.3 ± 1.7 (NS). For the same compound, the “Number … % change from control” value ([2]; 10 mg/kg i.p. −30 min) was −13%, the “Number … mean ± s.e.m.” value ([2]; 10 mg/kg i.p. −30 min) was 17.5 ± 2.0 (NS) and the “Number … % change from control” value ([2]; 30 mg/kg i.p. −30 min) was −81%. The “Number … mean ± s.e.m.” value ([2]; 30 mg/kg i.p. −30 min) was 3.8 ± 1.5 (***), the “Decreased fear, number of mice” value ([3]; at 30 minutes) was 3 mice and the “Decreased muscle tone, number of mice” value ([3]; at 30 minutes) was 4 mice. The “Decreased fear, number of mice” value ([3]; at 60 minutes) was 1 mouse, the “Decreased muscle tone, number of mice” value ([3]; at 60 minutes) was 1 mouse and the “Number of crossings, mean ± sem” value ([4]; 50 mg/kg p.o. -24 h) was 13.7 ± 1.3. The “Time spent in light compartment, mean ± sem” value (shortened to “Time spent … mean ± sem”) ([4]; 50 mg/kg p.o. -24 h) was 95.4 ± 3.8 s, the “Number of crossings, % change” value ([4]; 50 mg/kg p.o.) was “+111%” and the “Time spent in light compartment, % change” value (“Time spent … % change” for short) ([4]; 50 mg/kg p.o.) was “+48%”. For the same compound, the “Number of crossings, % change” value [4, 5] was “+111%”, the “Time spent … % change” value [4, 5] was “+48%” and the “Number of crossings, mean ± sem” value ([4]; 100 mg/kg p.o. -24 h) was 7.9 ± 1.0. For the same compound, the “Time spent … mean ± sem” value ([4]; 100 mg/kg p.o. -24 h) was 86.4 ± 8.9 s, the “Number of crossings, % change” value ([4]; 100 mg/kg p.o.) was “+22%” and the “Time spent … % change” value ([4]; 100 mg/kg p.o.) was “+34%”. For the same compound, the “Time spent … % change” value ([4]; 100 mg/kg p.o., listed as (−)-Humulone) was “+34%”, the “Number of crossings, mean ± sem” value ([4]; 200 mg/kg p.o. -24 h) was 8.3 ± 1.2 and the “Time spent … mean ± sem” value ([4]; 200 mg/kg p.o. -24 h) was 71.5 ± 8.8 s. The “Number of crossings, % change” value ([4]; 200 mg/kg p.o.) was “+28%”, the “Time spent … % change” value ([4]; 200 mg/kg p.o.) was “+11%” and the “Time spent … % change” value ([4]; 200 mg/kg p.o., listed as (−)-Humulone) was “+11%”.
“6-hydroxycolupulone [compound 5, reference compound]” was tested, and the “Effect on serotonin re-uptake” value [1] was “no effect”.
In the case of `CC(C)=CCC1=C(O)C(C(=O)CC(C)C)=C(O)C(CC=C(C)C)(CC=C(C)C)C1=O` [Lupulone, lupulone], the “Effect on serotonin re-uptake” value [1] is reported as “inhibited” and the Ki [1] is reported as 6 µM.
In the case of `CNCCC(Oc1ccc(C(F)(F)F)cc1)c1ccccc1` (stereo not shown) [FLUOXETINE, fluoxetine, reference compound], the “Number … % change from control” value ([2]; 32 mg/kg i.p. −30 min) is reported as −91% and the “Number … mean ± s.e.m.” value ([2]; 32 mg/kg i.p. −30 min) is reported as 1.9 ± 1.0 (***).
For `CC(C)=CCC(=O)C1(O)C(O)=C(C(=O)CC(C)C)C(=O)C1CC=C(C)C` (stereo not shown) [compound 3, isohumulone, reference compound], the “Effect on serotonin re-uptake” value [1] was “no effect”.
